{"source": "PubChem BioAssay AID2060615", "about": "(Molecular Pharmacology Branch, DTP, NCI, 2025);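 further: spheroids exposed to the drugs for 7 days before readout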;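 on viability, T/C: 100% = DMSO vehicle control wells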", "tested_on": "496974-208-R-J2-PDC complex spheroids, growth % test/control", "assay": "Anticancer human tumor 496974-208-R-J2-PDC patient-derived pancreatic carcinoma cell line growth inhibition [CLK]", "conditions": "for IC50: curve of first compound; for viability, T/C: stronger effect = lower value", "description": "A high-throughput screen of multi-cell type tumor spheroids was designed to identify active combinations of […] and targeted small molecules. Complex spheroids include a stromal component modeled by human endothelial cells (HUVEC) and fibroblasts modeled by human mesenchymal stem cells (MSCs). The concentration ranges selected for each drug and investigational agent were based upon clinically achievable concentrations if the clinical Cmax of the agent was known.\nCompounds. The drugs and investigational agents: cirtuvivint (SM08502; NSC835563), CC-671 (NSC850746), vemurafenib (NSC761431), tapotoclax (NSC804041), sotorasib (NSC818433), adagrasib (NSC831453), MRTX-1133 (NSC836407), BAY2416964 (NSC825713), copanlisib (NSC816437), inavolisib (NSC800729), abemaciclib (NSC768073), osimertinib (NSC779217), entinostat (NSC756642), eltanexor (KPT-8602, NSC794443), venetoclax (NSC766270), ceralasertib (NSC777638), bortezomib (NSC756655), olaparib (NSC753686), talazoparib (NSC767125), alisertib (NSC759677), peposertib (NSC802822), gemcitabine (NSC613327), 5-fluorouracil (NSC19893), SN-38 (NSC673596), oxaliplatin (NSC266046), paclitaxel (NSC125973), and doxorubicin (NSC123127), were obtained from the National Cancer Institute (NCI) Developmental Therapeutics Program Chemical Repository. The FDA-approved anticancer drug set is available from the Developmental Therapeutics Program at https://dtp.cancer.gov/organization/dscb/obtaining/available plates.htm. […] The stock solutions were prepared in dimethyl sulfoxide (DMSO, Sigma-Aldrich, St. Louis, MO, cat. D2650), except for the platinum complexes which were prepared in saline (Quality Biological, Gaithersburg, MD, cat. 114-055-101), at 800-fold the tested concentration and stored at -70 degrees C prior to their use. All drugs and investigational agents were tested over a range starting from a high concentration at or near the clinical Cmax and decreasing in half-log increments. If the clinical Cmax for an agent had not been determined, the highest concentration tested was 10 microM.\nCell Culture. All cells were maintained in an incubator at 37 degrees C and 5% CO2 with 95% humidity. The PDC lines were cultured according to standard operating procedures established by the NCI PDMR. Briefly, all PDCs were thawed and cultured in Matrigel-coated flasks prepared with a working solution of 1X Ham's F-12 nutrient mix, without supplementation (Invitrogen, Waltham, MA, cat. 11765054), 100 U/mL penicillin-streptomycin (Invitrogen, cat. 15140122), and 2.5% Matrigel (Corning Inc., Corning, NY, cat. 354248) for the first three passages. The 947758-054-R-J2-PDC line was cultured in 6B/Colon 1A media, which includes advanced DMEM/F-12 (Thermo Fisher Scientific, cat. 12634028), 10 mM HEPES (Thermo Fisher Scientific, cat. 15630080), 1X GlutaMAX supplement (Thermo Fisher Scientific, cat. 35050061), 0.1 mg/mL primocin (InvivoGen, cat. ant-pm-2), 10% defined fetal bovine serum, heat inactivated (HyClone Laboratories Inc., cat. SH30070.03HI), 1.25 mM N-Acetyl-L-cysteine (Sigma-Aldrich, cat. A9165), 10 mM nicotinamide (Sigma-Aldrich, cat. N0636), 1X B-27 supplement (Thermo Fisher Scientific, cat. 17504044), 1X N-2 supplement (Thermo Fisher Scientific, cat. 17502048), and 10 microM Y-27632 dihydrochloride (Tocris Bioscience, cat. 1254). The 876862-298-R-J1-PDC was cultured in 6E media, which includes all 6B/Colon 1A media components plus 50% L-WRN conditioned media (ATCC, cat. CRL-3276), 50 ng/mL recombinant human EGF recombinant protein (hEGF; Thermo Fisher Scientific, cat. PHG0311), 10 ng/mL recombinant human fibroblast growth factor 10 (hGFG-10; PeproTech, cat. 100-26), 1 ng/mL recombinant human fibroblast growth factor 2 (hFGF-2; PeproTech, cat. 100-18B), and 1 µM prostaglandin E2 (PGE2; Tocris, cat. 2296). The 227483-062-R1-J1-PDC line was cultured in Panc media, containing all 6E components except hFGF-2, with the addition of 500 nM SB-431542 (Selleckchem, cat. S1067) and 10 nM gastrin (Tocris, cat. 3006). […]", "data": [{"smiles": "CC(Nc1ccc2c(c1)OCCn1cc(N3C(=O)OCC3C(F)F)nc1-2)C(N)=O", "note": "(configuration not stated) + CN1CCN(c2cc(C(=O)Nc3cc4cc(-c5cnn(C)c5)ccc4cn3)ccn2)CC1", "values": [{"measurement": "IC50", "setting": "second compound 0.0316 µM", "result": 166, "unit": "nM"}, {"measurement": "IC50", "setting": "second compound 0.1 µM", "result": 101, "unit": "nM"}, {"measurement": "IC50", "setting": "second compound 0.316 µM", "result": "< 31.6", "unit": "nM"}, {"measurement": "IC50", "setting": "second compound 1 µM", "result": "< 31.6", "unit": "nM"}, {"measurement": "IC50", "setting": "second compound 3.16 µM", "result": "< 31.6", "unit": "nM"}, {"measurement": "IC50", "setting": "second compound 10 µM", "result": "< 31.6", "unit": "nM"}, {"measurement": "viability, T/C", "setting": "second compound 0.0316 µM, first compound 0.0316 µM", "result": 86.4, "unit": "%"}, {"measurement": "viability, T/C", "setting": "second compound 0.0316 µM, first compound 0.1 µM", "result": 60.1, "unit": "%"}, {"measurement": "viability, T/C", "setting": "second compound 0.0316 µM, first compound 0.316 µM", "result": 37.2, "unit": "%"}, {"measurement": "viability, T/C", "setting": "second compound 0.0316 µM, first compound 1 µM", "result": 22, "unit": "%"}, {"measurement": "viability, T/C", "setting": "second compound 0.0316 µM, first compound 3.16 µM", "result": 13.6, "unit": "%"}, {"measurement": "viability, T/C", "setting": "second compound 0.0316 µM, first compound 10 µM", "result": 8.34, "unit": "%"}, {"measurement": "viability, T/C", "setting": "second compound 0.1 µM, first compound 0.0316 µM", "result": 64, "unit": "%"}, {"measurement": "viability, T/C", "setting": "second compound 0.1 µM, first compound 0.1 µM", "result": 51.2, "unit": "%"}, {"measurement": "viability, T/C", "setting": "second compound 0.1 µM, first compound 0.316 µM", "result": 32.3, "unit": "%"}, {"measurement": "viability, T/C", "setting": "second compound 0.1 µM, first compound 1 µM", "result": 20.9, "unit": "%"}, {"measurement": "viability, T/C", "setting": "second compound 0.1 µM, first compound 3.16 µM", "result": 14.5, "unit": "%"}, {"measurement": "viability, T/C", "setting": "second compound 0.1 µM, first compound 10 µM", "result": 8.7, "unit": "%"}, {"measurement": "viability, T/C", "setting": "second compound 0.316 µM, first compound 0.0316 µM", "result": 7.37, "unit": "%"}, {"measurement": "viability, T/C", "setting": "second compound 0.316 µM, first compound 0.1 µM", "result": 5.41, "unit": "%"}, {"measurement": "viability, T/C", "setting": "second compound 0.316 µM, first compound 0.316 µM", "result": 2.52, "unit": "%"}, {"measurement": "viability, T/C", "setting": "second compound 0.316 µM, first compound 1 µM", "result": 2.18, "unit": "%"}, {"measurement": "viability, T/C", "setting": "second compound 0.316 µM, first compound 3.16 µM", "result": 2.7, "unit": "%"}, {"measurement": "viability, T/C", "setting": "second compound 0.316 µM, first compound 10 µM", "result": 2.59, "unit": "%"}, {"measurement": "viability, T/C", "setting": "second compound 1 µM, first compound 0.0316 µM", "result": 0.4, "unit": "%"}, {"measurement": "viability, T/C", "setting": "second compound 1 µM, first compound 0.1 µM", "result": 0.53, "unit": "%"}, {"measurement": "viability, T/C", "setting": "second compound 1 µM, first compound 0.316 µM", "result": 2.57, "unit": "%"}, {"measurement": "viability, T/C", "setting": "second compound 1 µM, first compound 1 µM", "result": 0.36, "unit": "%"}, {"measurement": "viability, T/C", "setting": "second compound 1 µM, first compound 3.16 µM", "result": 1.09, "unit": "%"}, {"measurement": "viability, T/C", "setting": "second compound 1 µM, first compound 10 µM", "result": 1.26, "unit": "%"}, {"measurement": "viability, T/C", "setting": "second compound 3.16 µM, first compound 0.0316 µM", "result": 0.43, "unit": "%"}, {"measurement": "viability, T/C", "setting": "second compound 3.16 µM, first compound 0.1 µM", "result": 0.34, "unit": "%"}, {"measurement": "viability, T/C", "setting": "second compound 3.16 µM, first compound 0.316 µM", "result": 1.75, "unit": "%"}, {"measurement": "viability, T/C", "setting": "second compound 3.16 µM, first compound 1 µM", "result": 0.38, "unit": "%"}, {"measurement": "viability, T/C", "setting": "second compound 3.16 µM, first compound 3.16 µM", "result": 0.52, "unit": "%"}, {"measurement": "viability, T/C", "setting": "second compound 3.16 µM, first compound 10 µM", "result": 0.5, "unit": "%"}, {"measurement": "viability, T/C", "setting": "second compound 10 µM, first compound 0.0316 µM", "result": 0.2, "unit": "%"}, {"measurement": "viability, T/C", "setting": "second compound 10 µM, first compound 0.1 µM", "result": 0.58, "unit": "%"}, {"measurement": "viability, T/C", "setting": "second compound 10 µM, first compound 0.316 µM", "result": 1.4, "unit": "%"}, {"measurement": "viability, T/C", "setting": "second compound 10 µM, first compound 1 µM", "result": 0.27, "unit": "%"}, {"measurement": "viability, T/C", "setting": "second compound 10 µM, first compound 3.16 µM", "result": 0.59, "unit": "%"}, {"measurement": "viability, T/C", "setting": "second compound 10 µM, first compound 10 µM", "result": 0.57, "unit": "%"}]}]}
